Structures can show the parent of a compound that is named as a salt.

Assay [1] concerns NCI-H292 lung cancer cells. Nature of the assay: FDA drug screening, complete media vs cholesterol-free media with simvastatin (TABLE 2). The class given is cell-based, human. The note with it: for Cholesterol-free media + simvastatin (0.04 μM) / Complete Media: NCI-H292 cells; for Difference: >0 enhanced anti-cancer activity, about 0 neutral, <0 antagonist.
In assay [2] the test system is NCI-H292 lung cancer cells. Nature of the assay: FDA drug screening, complete media vs cholesterol-free media without statin (TABLE 1). The class given is cell-based, human. The note with it: for Difference: about 0 neutral.
Setting [3] is: cholesterol-free media with simvastatin 0.04 μM, cell growth value in FDA drug screen.
The mark [4] stands for this setting: complete media, cell growth value in FDA drug screen.
[5] abbreviates: complete media minus cholesterol-free media + simvastatin.
The mark [6] stands for this setting: Complete minus Cholesterol-free, greater than 0 enhanced anti-cancer activity, below 0 antagonists.
Setting [7] is: NCI-H292 cells in cholesterol-free media without statin.
[8] abbreviates: NCI-H292 cells in complete media.
Where [9] appears, read: drug in cholesterol-free media with simvastatin 0.04 μM.
[10] abbreviates: complete media vs cholesterol-free media + simvastatin (0.04 μM).
Where [11] appears, read: NCI-H292 cells, cholesterol-free media without statin.
Where [12] appears, read: complete vs cholesterol-free media, greater than 0 enhanced anti-cancer activity, below 0 antagonists.
Setting [13] is: FDA drug library screen, cholesterol-free media with simvastatin 0.04 μM.
[14] abbreviates: FDA drug library screen, complete media.
[15] abbreviates: Complete minus Cholesterol-free, >0 enhanced anti-cancer activity, <0 antagonist.
Where [16] appears, read: NCI-H292 cells, cholesterol-free media without statin, FDA drug library screen.
[17] abbreviates: NCI-H292 cells, complete media, FDA drug library screen.
[18] abbreviates: Complete minus Cholesterol-free, greater than 0 enhanced anti-cancer activity, below 0 antagonist.
Setting [19] is: NCI-H292 cells, FDA drug library screen, cholesterol-free media without statin.
[20] abbreviates: NCI-H292 cells, FDA drug library screen, complete media.
[21] abbreviates: cholesterol-free media with simvastatin 0.04 μM, FDA drug library screen (TABLE 2).
Where [22] appears, read: complete media, FDA drug library screen (TABLE 2).
Setting [23] is: complete media minus cholesterol-free media + simvastatin (0.04 μM).
[24] abbreviates: FDA library drug in cholesterol-free media with simvastatin 0.04 μM.
The mark [25] stands for this setting: FDA library drug in complete media.

For `CC[C@H](C)C(=O)O[C@H]1C[C@H](O)C=C2C=C[C@H](C)[C@H](CC[C@@H](O)C[C@@H](O)CC(=O)[O-])[C@H]21.[Na+]` [Pravastatin (sodium)], the “Cholesterol-free media + simvastatin (0.04 μM)” value in assay [1] (setting [3]) is reported as 1.193. The “Complete Media” value in assay [1] (setting [4]) came out at 1.235. In addition, the Difference in assay [1] (setting [5]) is 0.04; in assay [2] (setting [6]), −0.48. Besides, in assay [2] (setting [7]), the Cholesterol-free came to 1.713. The molecule further showed a Complete in assay [2] (setting [8]) of 1.238.

For `Nc1nc2ncc(CNc3ccc(C(=O)N[C@@H](CCC(=O)O)C(=O)O)cc3)nc2c(=O)[nH]1` [Folic acid], in assay [1] (setting [9]), the “Cholesterol-free media + simvastatin (0.04 μM)” value amounted to 1.118. The “Complete Media” value in assay [1] (drug in complete media) was 0.9443. Further, the Difference in assay [1] (setting [10]) is on record as −0.17; in assay [2] (setting [12]) it was −0.42. In assay [2] (setting [11]), this molecule came in with a Cholesterol-free of 1.731. In assay [2] (NCI-H292 cells, complete media), this molecule returned a Complete of 1.312.

Consider `CCCCC[C@H](O)/C=C/[C@H]1[C@H](O)CC(=O)[C@@H]1C/C=C\CCCC(=O)O` [Prostaglandin E2], for which, in assay [1] (setting [3]), the “Cholesterol-free media + simvastatin (0.04 μM)” value is reported as 0.8899. Also, in assay [1] (setting [4]), the “Complete Media” value came out at 0.9562. Also, the results for the Difference in assay [1] (setting [5]) and in assay [2] (setting [6]) were 0.07 and −0.61, respectively. The Cholesterol-free in assay [2] (setting [7]) was 1.546. In addition, the Complete in assay [2] (setting [8]) was 0.9346.

As to `CCOc1ccccc1C(N)=O` [2-Ethoxybenzamide], the “Cholesterol-free media + simvastatin (0.04 μM)” value in assay [1] (setting [13]) is given as 1.119. Further, the “Complete Media” value in assay [1] (setting [14]) is 0.9754. Moreover, the Difference in assay [1] (setting [10]) was −0.14; in assay [2] (setting [15]), −0.07. In assay [2] (setting [16]), the Cholesterol-free was found to be 1.024. In addition, the Complete in assay [2] (setting [17]) is reported as 0.9559.

As for `O=C(O)CCCCC1CCSS1` (stereo not drawn) [α-Lipoic Acid], in assay [1] (setting [13]), the “Cholesterol-free media + simvastatin (0.04 μM)” value was 1.116. Besides, in assay [1] (setting [14]), the “Complete Media” value came out at 1.004. In addition, the Difference in assay [1] (setting [10]) was −0.11; in assay [2] (setting [18]), −0.15. This molecule came in with a Cholesterol-free in assay [2] (setting [19]) of 1.192. This molecule had a Complete in assay [2] (setting [20]) of 1.044.

Take `Cc1c(Cl)c(C)[n+]([O-])c(Cl)c1-c1noc(-c2cc(O)c(O)c([N+](=O)[O-])c2)n1` [Opicapone]: in assay [1] (setting [21]), the “Cholesterol-free media + simvastatin (0.04 μM)” value came to 0.9346. Also, the “Complete Media” value in assay [1] (setting [22]) turned out to be 0.8971. Also, the Difference is on record as −0.04 in assay [1] (setting [23]) and −0.13 in assay [2] (setting [18]). In assay [2] (setting [19]), this molecule returned a Cholesterol-free of 0.8861. In assay [2] (setting [20]), the Complete is given as 0.7591.

Take `CC(=O)O[C@]1(C(C)=O)CC[C@H]2[C@@H]3CCC4=CC(=O)CCC4=C3[C@@H](c3ccc(N(C)C)cc3)C[C@@]21C` [Ulipristal acetate]: the “Cholesterol-free media + simvastatin (0.04 μM)” value in assay [1] (setting [21]) is 0.6984. For the same molecule, the “Complete Media” value in assay [1] (setting [22]) is 0.695. Also, the Difference in assay [1] (setting [23]) is 0.00; in assay [2] (setting [12]) it was −0.31. In assay [2] (setting [11]), this molecule displayed a Cholesterol-free of 1.13. The Complete in assay [2] (NCI-H292 cells, complete media) was 0.8186.

Turning to `CC(C)(C)NCC(O)COc1cccc2c1CC(O)C(O)C2` (stereo not drawn) [Nadolol], the “Cholesterol-free media + simvastatin (0.04 μM)” value in assay [1] (setting [24]) worked out at 1.308. In addition, in assay [1] (setting [25]), the “Complete Media” value turned out to be 1.014. Further, the Difference in assay [1] (setting [10]) is reported as −0.29; in assay [2] (setting [15]), −0.30. Moreover, the Cholesterol-free in assay [2] (setting [11]) worked out at 1.37. For the same molecule, the Complete in assay [2] (NCI-H292 cells, complete media) came to 1.069.

For `O=C(O)[C@@H](S)[C@@H](S)C(=O)O` [Succimer], the “Cholesterol-free media + simvastatin (0.04 μM)” value in assay [1] (setting [9]) is reported as 1.252. For the same molecule, the “Complete Media” value in assay [1] (drug in complete media) was 1.035. Moreover, the Difference in assay [1] (setting [10]) is given as −0.22; in assay [2] (setting [12]), −0.45. The same molecule registered a Cholesterol-free in assay [2] (setting [11]) of 1.406. In assay [2] (NCI-H292 cells, complete media), this molecule had a Complete of 0.9576.

Consider `COc1ccccc1Oc1c(NS(=O)(=O)c2ccc(C(C)(C)C)cc2)nc(-c2ncccn2)nc1OCCO` [Bosentan], for which the “Cholesterol-free media + simvastatin (0.04 μM)” value in assay [1] (setting [21]) was 1.122. Besides, the “Complete Media” value in assay [1] (setting [22]) was found to be 1.122. Further, the results for the Difference in assay [1] (setting [23]) and in assay [2] (setting [15]) were 0.00 and −0.05, respectively. For the same molecule, in assay [2] (setting [16]), the Cholesterol-free worked out at 1.038. Besides, the Complete in assay [2] (setting [17]) is 0.9904.

For the molecule `O=C(O[C@H]1CN2CCC1CC2)N1CCc2ccccc2[C@@H]1c1ccccc1` [Solifenacin], in assay [1] (setting [24]), the “Cholesterol-free media + simvastatin (0.04 μM)” value amounted to 1.222. In addition, the “Complete Media” value in assay [1] (setting [25]) is given as 0.9497. Further, the Difference in assay [1] (setting [10]) is on record as −0.27; in assay [2] (setting [15]) it was −0.26. In assay [2] (setting [11]), the Cholesterol-free is given as 1.142. In assay [2] (NCI-H292 cells, complete media), this molecule registered a Complete of 0.8797.

Consider `O=C(NCc1c(F)cc(F)cc1F)c1cn2c(c(O)c1=O)C(=O)N1[C@H]3CC[C@H](C3)O[C@@H]1C2` [Bictegravir], for which the “Cholesterol-free media + simvastatin (0.04 μM)” value in assay [1] (setting [9]) amounted to 1.109. Moreover, the “Complete Media” value in assay [1] (drug in complete media) is given as 0.9083. The values for the Difference in assay [1] (setting [10]) and in assay [2] (setting [12]) were −0.20 and −0.34, respectively. For the same molecule, in assay [2] (setting [11]), the Cholesterol-free is listed as 1.057. For the same molecule, the Complete in assay [2] (NCI-H292 cells, complete media) was found to be 0.7123.

On to `OC[C@H]1O[C@@H](c2ccc(Cl)c(Cc3ccc(O[C@H]4CCOC4)cc3)c2)[C@H](O)[C@@H](O)[C@@H]1O` [Empagliflozin], for which the “Cholesterol-free media + simvastatin (0.04 μM)” value in assay [1] (setting [13]) turned out to be 0.9749. In addition, the “Complete Media” value in assay [1] (setting [14]) was 0.8261. The Difference in assay [1] (setting [10]) is −0.15; in assay [2] (complete vs cholesterol-free media, >0 enhanced anti-cancer activity, <0 antagonist), 0.32. The Cholesterol-free in assay [2] (setting [16]) came to 0.7937. In addition, in assay [2] (setting [17]), the Complete stood at 1.112.

With `CCOC(=O)c1ccc(N)cc1` [Benzocaine], in assay [1] (setting [24]), the “Cholesterol-free media + simvastatin (0.04 μM)” value amounted to 1.309. The “Complete Media” value in assay [1] (setting [25]) amounted to 1.007. Moreover, the Difference in assay [1] (setting [10]) and in assay [2] (setting [15]) was −0.30 in each case. This molecule showed a Cholesterol-free in assay [2] (setting [11]) of 0.9439. The same molecule had a Complete in assay [2] (NCI-H292 cells, complete media) of 0.6479.

For the molecule Brompheniramine (maleate), the “Cholesterol-free media + simvastatin (0.04 μM)” value in assay [1] (setting [13]) came to 0.8932. In addition, the “Complete Media” value in assay [1] (setting [14]) came out at 1.189. The Difference in assay [1] (setting [5]) is 0.30; in assay [2] (setting [6]) it was −0.54. Further, in assay [2] (setting [7]), the Cholesterol-free amounted to 1.443. The same molecule registered a Complete in assay [2] (setting [8]) of 0.9065.

Take `CCCCN1CCCCC1C(=O)Nc1c(C)cccc1C` (stereo not drawn) [Bupivacaine (hydrochloride)]: the “Cholesterol-free media + simvastatin (0.04 μM)” value in assay [1] (setting [9]) turned out to be 1.059. In addition, in assay [1] (drug in complete media), the “Complete Media” value was determined as 0.8922. Besides, the Difference in assay [1] (setting [10]) is listed as −0.17; in assay [2] (setting [18]), −0.15. In assay [2] (setting [19]), this molecule had a Cholesterol-free of 1.158. Besides, the Complete in assay [2] (setting [20]) is reported as 1.01.

For the molecule `CCOc1ccc(Cc2cc([C@@H]3O[C@H](SC)[C@@H](O)[C@H](O)[C@H]3O)ccc2Cl)cc1` [Sotagliflozin], in assay [1] (setting [13]), the “Cholesterol-free media + simvastatin (0.04 μM)” value is reported as 1.193. In addition, in assay [1] (setting [14]), the “Complete Media” value amounted to 1.078. Moreover, the Difference in assay [1] (setting [10]) and in assay [2] (setting [18]) was −0.11 throughout. This molecule yielded a Cholesterol-free in assay [2] (setting [19]) of 1.101. The same molecule displayed a Complete in assay [2] (setting [20]) of 0.9895.

Take `CCNC(=O)CCC/C=C\C[C@@H]1[C@@H](/C=C/[C@@H](O)CCc2ccccc2)[C@H](O)C[C@@H]1O` [Bimatoprost]: the “Cholesterol-free media + simvastatin (0.04 μM)” value in assay [1] (setting [24]) is 1.43. The “Complete Media” value in assay [1] (setting [25]) came out at 0.9569. The Difference is given as −0.47 in assay [1] (setting [10]) and −0.40 in assay [2] (setting [12]). Also, the Cholesterol-free in assay [2] (setting [11]) is given as 1.545. Further, the Complete in assay [2] (NCI-H292 cells, complete media) came out at 1.142.

Consider `CC(C)OC(=O)OCOP(=O)(CO[C@H](C)Cn1cnc2c(N)ncnc21)OCOC(=O)OC(C)C` [Tenofovir (Disoproxil)], for which the “Cholesterol-free media + simvastatin (0.04 μM)” value in assay [1] (setting [24]) was 1.242. The “Complete Media” value in assay [1] (setting [25]) was found to be 0.9076. Moreover, the Difference was −0.33 in assay [1] (setting [10]) and −0.65 in assay [2] (setting [6]). The Cholesterol-free in assay [2] (setting [7]) stood at 1.348. In assay [2] (setting [8]), the Complete was 0.7009.
